Among the test systems are A498 renal; HCT-116 colon; HOP-62 NSCLC; MALME-3M melanoma; NCI-H226 lung; OVCAR-5 ovarian; SF-268 CNS; SNB-19 CNS; SR leukemia; U251 CNS.
Common to all, as to assay: inhibition of tumour cell growth, NCI panel, 48 h

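Assay format: 96-well plates, 48-hour exposure. The concentration for 50% growth inhibition is given as GI50. TGI denotes the concentration required for complete inhibition of growth.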

`CC1=C(C(=O)Nc2ccc3[nH]ncc3c2)C(c2ccc(F)cc2)NC(=O)N1` (stereo not given): the GI50 with A498 renal is more than 14.6 µM; in the experiment with HCT-116 colon, more than 25 µM; in the experiment on HOP-62 NSCLC it was more than 25 µM; with MALME-3M melanoma it was more than 25 µM; in the experiment on NCI-H226 lung, 6.46 µM; in the experiment with OVCAR-5 ovarian it was more than 25 µM. The GI50 is 23.4 µM in the experiment with SF-268 CNS, more than 25 µM in the experiment on SNB-19 CNS, 19.2 µM in the experiment with SR leukemia and more than 25 µM with U251 CNS. Further, the TGI with A498 renal, in the experiment on HCT-116 colon, in the experiment on HOP-62 NSCLC, with MALME-3M melanoma, in the experiment on NCI-H226 lung and with OVCAR-5 ovarian was more than 25 µM each time. Moreover, the TGI in the experiment with SF-268 CNS, in the experiment with SNB-19 CNS, with SR leukemia and with U251 CNS was more than 25 µM each time.

Turning to `NC1C2C(CC(=O)O)OCC=C3CN4CCC1(C(=O)C(=O)O)C4CC32` (stereo not given), the TGI with A498 renal, in the experiment on HCT-116 colon, in the experiment on HOP-62 NSCLC, with MALME-3M melanoma, with NCI-H226 lung and in the experiment with OVCAR-5 ovarian was more than 100 µM throughout. The TGI in the experiment with SF-268 CNS, with SNB-19 CNS, with SR leukemia and in the experiment on U251 CNS was more than 100 µM each time.

As to `CC/C=C\C/C=C\C[C@H](O)C/C=C1/C(=O)C=C[C@H]1C/C=C\CCC(=O)OC`, the GI50 in the experiment with A498 renal is more than 8.25 µM; with HCT-116 colon, 1.55 µM; with HOP-62 NSCLC it was 3.17 µM; in the experiment with MALME-3M melanoma it was 2.2 µM; with NCI-H226 lung, 2.32 µM; in the experiment with OVCAR-5 ovarian, 5 µM. For the same compound, the GI50 in the experiment with SF-268 CNS is 3.04 µM; in the experiment on SNB-19 CNS, 7.76 µM; in the experiment on SR leukemia, 1.61 µM; in the experiment on U251 CNS, 2.66 µM. In addition, the TGI in the experiment on A498 renal is more than 8.25 µM; in the experiment with HCT-116 colon, 3.15 µM; in the experiment with HOP-62 NSCLC it was more than 8.25 µM; with MALME-3M melanoma it was more than 8.25 µM; with NCI-H226 lung it was more than 8.25 µM; with OVCAR-5 ovarian, more than 8.25 µM. Besides, the TGI with SF-268 CNS, with SNB-19 CNS, in the experiment on SR leukemia and in the experiment on U251 CNS was more than 8.25 µM each time.

Values taken from PubChem BioAssay (NCI).
